Results published in ChEMBL document CHEMBL3045653, “A novel amino acid substitution Ala-122-Tyr in ALS confers high-level and broad resistance across ALS-inhibiting herbicides” (Pest Manag Sci, 2012).

Molecular target: T1, Acetolactate synthase (Raphanus raphanistrum, UniProt J7HAW4)
T1 sequence (J7HAW4 whole entry): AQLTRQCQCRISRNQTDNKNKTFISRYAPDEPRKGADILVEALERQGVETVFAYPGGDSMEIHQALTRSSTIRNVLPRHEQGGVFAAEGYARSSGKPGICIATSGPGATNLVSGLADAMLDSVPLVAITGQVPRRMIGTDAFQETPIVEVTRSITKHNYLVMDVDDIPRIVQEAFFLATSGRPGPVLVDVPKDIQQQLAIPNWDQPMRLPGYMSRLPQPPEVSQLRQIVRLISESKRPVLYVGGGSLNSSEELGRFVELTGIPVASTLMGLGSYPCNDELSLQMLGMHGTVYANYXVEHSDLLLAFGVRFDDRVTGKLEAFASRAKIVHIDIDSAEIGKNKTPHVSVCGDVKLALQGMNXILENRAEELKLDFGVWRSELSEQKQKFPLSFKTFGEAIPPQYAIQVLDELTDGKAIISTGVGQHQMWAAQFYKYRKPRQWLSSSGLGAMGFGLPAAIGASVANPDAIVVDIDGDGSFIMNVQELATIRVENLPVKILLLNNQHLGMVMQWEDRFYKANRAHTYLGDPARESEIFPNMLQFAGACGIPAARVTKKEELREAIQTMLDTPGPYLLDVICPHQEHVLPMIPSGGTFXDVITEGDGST
Assay: Inhibition of ALS in ALS-herbicide-susceptible Raphanus raphanistrum […] (wild radish)
Conditions: pooled result: one value given for 2 cell lines, strains, targets or settings; read-out: I50

## Cc1cc(C)nc(NC(=O)NS(=O)(=O)c2ccccc2C(=O)O)n1 [SULFOMETURON]
  IC50: 0.023 µM
